Activity calls are given as the source filed them. No cut-off for these calls is given here.
Key:
[1] = system: SW480; test: Antiproliferative activity against human SW480 cells assessed as reduction in cell viability at 1 to 100 uM incubated for 24 to 72 hrs by MTT assay; format: functional, cell-based; details: dose 1-100 µM, time 24-72 hrs
[2] = system: HCT-116; test: Antiproliferative activity against human HCT116 cells assessed as reduction in cell viability at 1 to 100 uM incubated for 24 to 72 hrs by MTT assay; format: functional, cell-based; details: dose 1-100 µM, time 24-72 hrs
[3] = system: SW480; test: cells; details: Homo sapiens
[4] = system: HCT-116; test: cells; details: Homo sapiens
[5] = system: SW480; test: Antiproliferative activity against human SW480 cells assessed as reduction in cell viability at 1 to 100 uM by MTT assay; format: functional, cell-based; details: dose 1-100 µM, time 24-72 hrs, TDE = time-dependent effect
[6] = system: SW480; test: Induction of apoptosis in human SW480 cells assessed as decrease in number of cells at 5 to 50 uM after 24 hrs by AO/EB staining based fluorescence inverted microscopic method; format: functional, cell-based; details: dose 5-50 µM
[7] = system: SW480; test: Induction of apoptosis in human SW480 cells assessed as change in cell shape at 5 to 50 uM after 24 hrs by AO/EB staining based fluorescence inverted microscopic method; format: functional; details: dose 5-50 µM
[8] = system: SW480; test: Induction of apoptosis in human SW480 cells assessed as increase in number of cells with red dye at 5 to 50 uM after 24 hrs by AO/EB staining based fluorescence inverted microscopic method; format: functional, cell-based; details: dose 5-50 µM
[9] = system: SW480; test: Induction of apoptosis in human SW480 cells assessed as early apoptotic cells at 5 uM incubated for 24 hrs by Annexin V-FITC/propidium iodide staining based flow cytometry analysis (reference value: 0.52%); format: functional
[10] = system: SW480; test: Induction of apoptosis in human SW480 cells assessed as late apoptotic cells at 5 uM incubated for 24 hrs by Annexin V-FITC/propidium iodide staining based flow cytometry analysis (reference value: 2.58%); format: functional
[11] = system: SW480; test: Induction of apoptosis in human SW480 cells assessed as early apoptotic cells at 10 uM incubated for 24 hrs by Annexin V-FITC/propidium iodide staining based flow cytometry analysis (reference value: 0.52%); format: functional
[12] = system: SW480; test: Induction of apoptosis in human SW480 cells assessed as late apoptotic cells at 10 uM incubated for 24 hrs by Annexin V-FITC/propidium iodide staining based flow cytometry analysis (reference value: 2.58%); format: functional
[13] = system: SW480; test: Induction of apoptosis in human SW480 cells assessed as early apoptotic cells at 25 uM incubated for 24 hrs by Annexin V-FITC/propidium iodide staining based flow cytometry analysis (reference value: 0.52%); format: functional
[14] = system: SW480; test: Induction of apoptosis in human SW480 cells assessed as late apoptotic cells at 25 uM incubated for 24 hrs by Annexin V-FITC/propidium iodide staining based flow cytometry analysis (reference value: 2.58%); format: functional
[15] = system: SW480; test: Induction of apoptosis in human SW480 cells assessed as early apoptotic cells at 50 uM incubated for 24 hrs by Annexin V-FITC/propidium iodide staining based flow cytometry analysis (reference value: 0.52%); format: functional
[16] = system: SW480; test: Induction of apoptosis in human SW480 cells assessed as late apoptotic cells at 50 uM incubated for 24 hrs by Annexin V-FITC/propidium iodide staining based flow cytometry analysis (reference value: 2.58%); format: functional
[17] = system: SW480; test: Down regulation of PRL-3 expression in human SW480 cells by Western blot analysis; format: functional, cell-based; details: dose 5-50 µM
[18] = system: SW480; test: Effect on TCPTP expression in human SW480 cells at 5 to 50 uM by Western blot analysis; format: functional, cell-based; details: dose 5-50 µM
[19] = system: SW480; test: Effect on PTP1B expression in human SW480 cells at 5 to 50 uM by Western blot analysis; format: functional, cell-based; details: dose 5-50 µM
[20] = system: SW480; test: Effect on SHP-1 expression in human SW480 cells at 5 to 50 uM by Western blot analysis; format: functional, cell-based; details: dose 5-50 µM
[21] = system: SW480; test: Effect on SHP-2 expression in human SW480 cells at 5 to 50 uM by Western blot analysis; format: functional, cell-based; details: dose 5-50 µM
[22] = system: SW480; test: Antiproliferative activity against human SW480 cells assessed as reduction in cell viability incubated for 24 to 72 hrs by MTT assay; details: dose 1-100 µM, time 24-72 hrs
[23] = target: T1, Protein tyrosine phosphatase type IVA 3 (Homo sapiens, UniProt O75365); test: Inhibition of human brain PRL-3 (1 to 168 residues) expressed in Escherichia coli BL21(DE3) cells using DiFMUP as substrate incubated for 1 hr by fluorimetric assay
T1 sequence (O75365 whole entry, the tested form may be a part): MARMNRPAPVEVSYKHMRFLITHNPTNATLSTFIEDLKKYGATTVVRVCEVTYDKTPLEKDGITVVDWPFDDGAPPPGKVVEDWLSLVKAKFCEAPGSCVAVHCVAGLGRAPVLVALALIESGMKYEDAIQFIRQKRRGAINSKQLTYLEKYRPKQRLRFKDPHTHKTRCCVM

[24] = target: T1, Protein tyrosine phosphatase type IVA 3; test: Inhibition of PRL-3 (unknown origin) using DiFMUP as substrate incubated for 1 hr

`O=C1NC(=S)S/C1=C\c1c(F)cc(F)cc1F` was tested. Which Activity [1] did it give?
Its Activity is “inactive”.

And the Activity [2]?
The Activity was “inactive”.

And the IC50 [3]?
The IC50 was 86.1 µM.

And the IC50 [4]?
The IC50 was 16.9 µM.

How did the Activity [5] turn out when `O=C1NC(=S)S/C1=C\c1cc(Cl)ccc1C(F)(F)F` was run?
The Activity was “Tde”.

What about the Activity [6] of the same molecule?
Its Activity is “Active”.

And the Activity [7]?
The Activity was “Active”.

What about the Activity [8] of the same molecule?
The Activity was “Active”.

What about the Activity [9] of the same molecule?
The Activity was 0.92%.

What about the Activity [10] of the same molecule?
Its Activity is 4.13%.

What about the Activity [11] of the same molecule?
Its Activity is 1.47%.

What about the Activity [12] of the same molecule?
The Activity was 5.91%.

And the Activity [13]?
Its Activity is 2.9%.

What about the Activity [14] of the same molecule?
Its Activity is 6.23%.

What about the Activity [15] of the same molecule?
Its Activity is 4.77%.

And the Activity [16]?
The Activity was 11.72%.

And the Activity [17]?
Its Activity is “Dose-Dependent Effect”.

And the Activity [18]?
The Activity was “inactive”.

And the Activity [19]?
The Activity was “inactive”.

And the Activity [20]?
Its Activity is “inactive”.

What about the Activity [21] of the same molecule?
The Activity was “inactive”.

What about the IC50 [3] of the same molecule?
Its IC50 is 6.64 µM.

What about the IC50 [4] of the same molecule?
Its IC50 is 74.8 µM.

What about the Activity [22] of the same molecule?
Its Activity is “Dose-Dependent Effect”.

How did the Activity [1] turn out when `Cn1ccnc1/C=C1\SC(=S)NC1=O` was run?
Its Activity is “inactive”.

And the Activity [2]?
Its Activity is “inactive”.

What about the IC50 [3] of the same molecule?
The IC50 was 78.7 µM.

And the IC50 [4]?
Its IC50 is over 100 µM.

Which IC50 [23] does the source give for `COc1ccc(-c2cc(=O)c3c(O)cc(O)c(-c4cc(-c5cc(=O)c6c(O)cc(OC)cc6o5)ccc4OC)c3o2)cc1` [SCIADOPITISIN] here?
The IC50 was 46.2 µM.

For `COc1cc(O)c2c(=O)cc(-c3ccc(OC)c(-c4c(O)cc(O)c5c(=O)cc(-c6ccc(O)cc6)oc45)c3)oc2c1` [GINKGETIN], which IC50 [23] is on record?
The IC50 was 25.8 µM.

For `N#Cc1cc(/C=C2\SC(=S)NC2=O)ccc1F`, which Activity [1] is on record?
The Activity was “inactive”.

And the Activity [2]?
Its Activity is “inactive”.

What about the IC50 [3] of the same molecule?
Its IC50 is 31.4 µM.

And the IC50 [4]?
The IC50 was over 100 µM.

How did the Activity [1] turn out when `O=C1NC(=S)S/C1=C\c1ccc(O)c(C(=O)O)c1` was run?
Its Activity is “inactive”.

And the Activity [2]?
Its Activity is “inactive”.

And the IC50 [3]?
Its IC50 is over 100 µM.

What about the IC50 [4] of the same molecule?
The IC50 was 100 µM.

`O=C1NC(=S)S/C1=C\c1cc(Cl)ccc1Cl` was tested. Which IC50 [24] did it give?
Its IC50 is 26 µM.

And the Activity [1]?
Its Activity is “inactive”.

And the Activity [2]?
The Activity was “inactive”.

What about the IC50 [3] of the same molecule?
The IC50 was 66.7 µM.

And the IC50 [4]?
The IC50 was 16.9 µM.

Reference: ChEMBL document CHEMBL4814023, “The dual inhibition against the activity and expression of tyrosine phosphatase PRL-3 from a rhodanine derivative” (Bioorg Med Chem Lett, 2021)
